Reference: patent publication US6156291A, “Chemical and pharmacological standardization of herbal extracts” (CV Technologies Inc., priority 1998, dated 2000)
Entries after “also recorded” stand apart in the source; their conditions may differ.

Tests used:
rat brain synaptosomes [1] = experiment: choline uptake in rat brain synaptosomes; assay type: biochemical; details: for effect on choline uptake (FIG. 1): various doses, rat brain synaptosomes
Description: (1) Effects of CVT-E001 on choline uptake in isolated brain synaptosomes in rats
(§1) Choline uptake has been examined in synaptosome preparations from whole brain and hippocampus in the presence of Rb1, CVT-E001 and HC3.
The magnitude of these effects are consistent with the previous studies.

rat brain synaptosomes [2] = details: literature (Benishin, 1992); Rb1 positive control, HC3 negative control; cited from earlier work
[3] = system: dorsal and sympathetic ganglia; details: literature (Saito 1985), cited from earlier work; for neurite outgrowth by NGF: in presence of NGF; for neurite outgrowth without NGF: on its own
[4] = system: synaptosomes prepared from rat hippocampus; experiment: choline uptake into synaptosomes prepared from rat hippocampus; assay type: biochemical; details: Table 2
Description: as §1
This observation is not unexpected as many pharmacological compounds have an optimal dose range and more or less of the material results in less biological activity.

[5] = pure ginsenosides; literature; cited from earlier work
[6] = Morris Water Maze and Scopolamine induced Amnesia Model; assay type: in vivo, rat
Description: As CVT-E001 is a mixture of ginsenosides, it may not have the same properties as pure saponins. […] Rats are required to learn the location of a hidden platform in a murky swimming pool. […] The effects of CVT-E001 on memory can also be examined in scopolamine induced amnesia (scopolamine interferes with the cholinergic neurotransmitter system and impedes learning and memory). If CVT-E001 enhances learning and/or memory it should facilitate task acquisition and/or protect against memory loss in scopolamine treated animals.
A study was designed of spatial learning and memory using the Morris water maze and scopolamine induced amnesia with CVT-E001 as the test compound. The specific aim of the experiment was to test if CVT-E001 affected the acquisition and/or retention of a new task in the presence of scopolamine induced amnesia. Rats (S/D strain males, 200-250 g, about 8 weeks old) are initially divided into two groups and fed either water (0.5 ml) or CVT-E001 (200 mg/kg/day in 0.5 ml water by gavage) for the duration of the experiment. Eight days after the initiation of CVT-E001 administration rats are given the task of learning the position of a platform hidden in a pool of murky water. The rats are placed in the pool 4 times per day for 5 days and the time required to find the platform in recorded (maximum duration 5 minutes). This time becomes shorter as the rats learn the task. On day 14 the two groups of rats are further subdivided into four groups. Six rats from each of the initial two groups receive saline injections while the remaining six rats from each initial group receive scopolamine (2 mg/kg) prior to being required to find the platform which has been moved to a new location (3 trials, maximum duration 3 minutes within 30 minutes of receiving either saline or scopolamine injection. On day 15 the procedure for day 14 was repeated with the platform remaining located in the position designated on day 14. On day 16, the procedure from day 14 was again followed except that the platform was moved to a location on the opposite side of the pool. On day 17 the procedure followed on day 14 was repeated except that the platform remains in the location designated on day 16. In each instance the time to locate the platform is recorded.
This experiment was repeated twice using 24 rats each time. The data from the two experiments was combined. One CVT-E001 treated rat died from accidental administration of CVT-E001 into the lungs.
Statistical analysis was by analysis of variance on log transformed data. As a posteriori test of significance were performed using the Newman-Keulstest.

[7] = system: PC12 (pheochromocytoma) cell lines; details: literature; cited from earlier work
[8] = system: PC12 (pheochromocytoma) cell lines; experiment: neurite outgrowth in PC12 cells; assay type: cell-based; details: seven days after treatment; FIGS. 26, 27
Protocol: PC12 cells were seeded and maintained in 100 cm^2 tissue culture dishes at 37° C. in RRMI1640 containing 1% antibiotics, 10% heated inactivated horse serum and 5% fetal bovine serum in a water saturated atmosphere of 95% air and 5% CO2. NIE-115 cells were maintained in a flask in 90% DMEM (Dulbecco's Modified Eagle Medium, Gibco, Grand Island, N.Y., USA) with 10% FBS and antibiotic PNS (penicillin, neomycin streptomycin). The culture plates were maintained in a temperature-controlled (37° C.) humidified atmosphere consisting of 95% room air and 5% CO2. The cells were mechanically dislodged for the experiment by forceful aspiration of the medium through a Pasteur pipette and plated in 35 mm collagen-coated tissue culture dishes containing a total of 2.0 ml of complete medium at a density of 1×10^4 cells/ml. […]
The cellular response to Nerve Growth Factor (NGF) and samples were determined by counting the number of cells contained processes in PC12 cells. […]
The cells and neurites were counted as follows.
Cells with circular or global shapes and no neurite outgrowth were scored as 0 (S0).
Cells with more than two small neurites on the cell bodies were scored as S2.
Cells with one or two neurites with the length of at least two times diameter as their body were scored as S3.
Cells with more than two long neurites were scored as S4.
The neurite index was calculated as below: […]

Row | Compound | effect on choline uptake (FIG. 1) (rat brain synaptosomes [1]) | choline uptake, previously demonstrated (rat brain synaptosomes [2]) | neurite outgrowth by NGF [3] | neurite outgrowth without NGF [3] | learning and memory [5] | other results
1 | C[N+]1(C)CCOC(O)(c2ccc(-c3ccc(C4(O)C[N+](C)(C)CCO4)cc3)cc2)C1 (stereo not shown) [HC3] | inhibits choline uptake | inhibit choline uptake | – | – | – | –
2 | CC(C)=CCC[C@](C)(O[C@@H]1O[C@H](CO[C@@H]2O[C@H](CO)[C@@H](O)[C@H](O)[C@H]2O)[C@@H](O)[C@H](O)[C@H]1O)[C@H]1CC[C@]2(C)[C@@H]1[C@H](O)C[C@@H]1[C@@]3(C)CC[C@H](O[C@@H]4O[C@H](CO)[C@@H](O)[C@H](O)[C@H]4O[C@@H]4O[C@H](CO)[C@@H](O)[C@H](O)[C@H]4O)C(C)(C)[C@@H]3CC[C@]12C [Rb1, ginsenoside Rb1] | promotes choline uptake | increase choline uptake into synaptosomes | enhance neurite outgrowth of dorsal and sympathetic ganglia | no effect on its own | enhance learning and memory; also recorded: improve memory in experimental animals | choline uptake (in words) [4]: increase choline uptake; stimulation of choline uptake (in words) (rat brain synaptosomes [1]; Table 3): significantly stimulate choline uptake; potency ranking, choline uptake (rat brain synaptosomes [1]; Table 3, CVT-E001 contains 8.1% Rb1, 32.4% total ginsenosides, n = 4): CVTE001 > TS > Rb1
3 | CC(C)=CCC[C@](C)(O[C@@H]1O[C@H](CO)[C@@H](O)[C@H](O)[C@H]1O)[C@H]1CC[C@]2(C)[C@@H]1[C@H](O)C[C@@H]1[C@@]3(C)CC[C@H](O[C@@H]4O[C@H](CO)[C@@H](O)[C@H](O)[C@H]4O[C@@H]4O[C@H](CO)[C@@H](O)[C@H](O)[C@H]4O)C(C)(C)[C@@H]3CC[C@]12C [Rd, ginsenoside Rd] | – | – | enhance neurite outgrowth of dorsal and sympathetic ganglia | no effect on its own | – | –
4 | CC(C)=CCC[C@](C)(O[C@@H]1O[C@H](CO)[C@@H](O)[C@H](O)[C@H]1O)[C@H]1CC[C@]2(C)[C@@H]1[C@H](O)C[C@@H]1[C@@]3(C)CC[C@H](O)C(C)(C)[C@@H]3[C@@H](O[C@@H]3O[C@H](CO)[C@@H](O)[C@H](O)[C@H]3O)C[C@]12C [Rg1, ginsenoside Rg1] | – | – | – | – | enhance learning and memory; also recorded: improve memory in experimental animals | –
5 | CN1[C@@H]2C[C@@H](OC(=O)[C@H](CO)c3ccccc3)C[C@H]1[C@@H]1O[C@@H]12 [scopolamine] | – | – | – | – | – | latency remembering platform location, combined trials ([6]; day 15, scopolamine 2 mg/kg, CVT-E001 200 mg/kg/day, FIG. 19): significantly greater latency than all other groups; latency to second new platform location, trial 3 ([6]; day 16, scopolamine 2 mg/kg, FIG. 20): demonstrated a scopolamine induced learning deficit; latency remembering second platform location, first trial ([6]; day 17, scopolamine 2 mg/kg with or without CVT-E001 200 mg/kg/day, FIG. 22): significantly impaired; latency remembering second platform location, combined trials ([6]; day 17, scopolamine 2 mg/kg with or without CVT-E001 200 mg/kg/day, FIG. 23): demonstrate a learning deficit
6 | NGF: Nerve Growth Factor, prototype neurotrophin | – | – | – | – | – | PC12 response to NGF treatment [7]: neurite outgrowth and electrical excitability; neurite outgrowth in PC12 [8]: increased neurite outgrowth in PC12 in a dose-dependent manner
